Molecular target: γ-secretase (Homo sapiens (Human), UniProt P49768)
Assay: Cellular γ-secretase assay (Aβ42 secretion, AlphaLisa)
Assay type: cell-based
Conditions: inhibition of Aβ42 secretion; human neuroglioma H4 cells overexpressing human APP695 Swedish double mutation; 24 hr compound incubation
Method: Human neuroglioma H4 cells overexpressing human APP695 with the Swedish double mutation (K595N/M596L) were plated at 30,000 cells/well/100 μl in 96-well plates in IMDM media containing 10% FCS, 0.2 mg/l Hygromycin B and incubated at 37° C., 5% CO2.
3-4 hr post plating, compounds are a diluted in media and 50 μl is added as […] concentrate to achieve the final concentration. Compound incubation is performed for 24 hr. Final doses typically range from 4 μM down to 0.0013 μM in half-log steps resulting in an eight point dose response curve. Appropriate controls using vehicle only and reference compound were applied to this assay. The final concentration of Me2SO was 0.4%.
After incubation at 37° C., 5% CO2, the supernatant was subjected to quantification of secreted Aβ42 by the means of an AlphaLisa assay kit (Human Amyloid beta 1-42 Kit: Cat # AL203C, Perkin Elmer). 20 μl of the cell culture supernatant was transferred to an assay plate. Then 10 μl of a mixture of the AlphaLisa coupled capture antibody and the biotinylated detection antibody was added and incubated for 3 hours at room temperature while softly shaking the assay plate. After a further addition of 20 μl of the Donor beads the assay plate was incubated for 30 min at room temperature and constant shaking without exposure to direct light. The assay plate was then read on a Paradigm AlphaLisa Reader using the build-in program with excitation at 680 nm and emission at […]. The measured signals were then used to calculate IC50 values for inhibition of Aβ42 secretion by nonlinear regression fit analysis using XLfit 5.3 software (IDBS).

SMILES | EC50 [nM]
CNc1nc(Nc2ccc(-n3cnc(C)n3)c(OC)c2)nc2c1C(C)(C)CN2C1CC(F)(F)C1 [Example 17, 7-(3,3-Difluorocyclobutyl)-N2-(3-methoxy-4-(3-methyl-1H-1,2,4-triazol-1-yl)phenyl)-N4,5,5-trimethyl-6,7-dihydro-5H-pyrrolo[2,3-d]pyrimidine-2,4-diamine] | 19
CNc1nc(Nc2ccc(-n3cc(C)nc3C)c(F)c2)nc2c1C(C)(C)CN2c1ccc(F)cc1 [Example 11, N2-(4-(2,4-Dimethyl-1H-imidazol-1-yl)-3-fluorophenyl)-7-(4-fluorophenyl)-N4,5,5-trimethyl-6,7-dihydro-5H-pyrrolo[2,3-d]pyrimidine-2,4-diamine] | 33
CNc1nc(Nc2ccc(-n3cnc(C)n3)c(F)c2)nc2c1C(C)(C)CN2c1ccc(F)cc1F [Example 24, 7-(2,4-Difluorophenyl)-N2-(3-fluoro-4-(3-methyl-1H-1,2,4-triazol-1-yl)phenyl)-N4,5,5-trimethyl-6,7-dihydro-5H-pyrrolo[2,3-d]pyrimidine-2,4-diamine] | 22
CNc1nc(Nc2ccc(-n3cnc(C)n3)c(OC)c2)nc2c1C(C)(C)CCN2c1ccc(F)cc1 [Example 35, 8-(4-Fluorophenyl)-N2-(3-methoxy-4-(3-methyl-1H-1,2,4-triazol-1-yl)phenyl)-N4,5,5-trimethyl-5,6,7,8-tetrahydropyrido[2,3-d]pyrimidine-2,4-diamine] | 13
CNc1nc(Nc2ccc(-n3cnc(C)n3)cc2)nc2c1C(C)(C)CN2c1ccc(F)cc1 [Example 10, 7-(4-Fluorophenyl)-N4,5,5-trimethyl-N2-(4-(3-methyl-1H-1,2,4-triazol-1-yl)phenyl)-6,7-dihydro-5H-pyrrolo[2,3-d]pyrimidine-2,4-diamine] | 51
Cc1ncn(-c2ccc(Nc3nc(NCCO)c4c(n3)N(c3ccc(F)cc3)CC4(C)C)cc2F)n1 [Example 31, 2-((2-((3-Fluoro-4-(3-methyl-1H-1,2,4-triazol-1-yl)phenyl)amino)-7-(4-fluorophenyl)-5,5-dimethyl-6,7-dihydro-5H-pyrrolo[2,3-d]pyrimidin-4-yl)amino)ethanol] | 15
CNc1nc(Nc2ccc(-c3nnc(C)o3)c(OC)c2)nc2c1C(C)(C)CN2c1ccc(F)cc1 [Example 27, 7-(4-Fluorophenyl)-N2-(3-methoxy-4-(5-methyl-1,3,4-oxadiazol-2-yl)phenyl)-N4,5,5-trimethyl-6,7-dihydro-5H-pyrrolo[2,3-d]pyrimidine-2,4-diamine] | 30
CNc1nc(Nc2ccc(-n3cnc(C)n3)c(OC(F)F)c2)nc2c1C(C)(C)CN2c1ccc(F)cc1 [Example 2, N2-(3-(Difluoromethoxy)-4-(3-methyl-1H-1,2,4-triazol-1-yl)phenyl)-7-(4-fluorophenyl)-N4,5,5-trimethyl-6,7-dihydro-5H-pyrrolo[2,3-d]pyrimidine-2,4-diamine] | 8
CNc1nc(Nc2cnc(-n3cnc(C)c3)c(F)c2)nc2c1C(C)(C)CN2c1ccc(F)cc1 [Example 25, N2-(5-Fluoro-6-(4-methyl-1H-imidazol-1-yl)pyridin-3-yl)-7-(4-fluorophenyl)-N4,5,5-trimethyl-6,7-dihydro-5H-pyrrolo[2,3-d]pyrimidine-2,4-diamine] | 8
CNc1nc(Nc2cnc(-n3cnc(C)c3)c(OC)c2)nc2c1C(C)(C)CN2c1ccc(F)cc1F [Example 20, 7-(2,4-Difluorophenyl)-N2-(5-methoxy-6-(4-methyl-1H-imidazol-1-yl)pyridin-3-yl)-N4,5,5-trimethyl-6,7-dihydro-5H-pyrrolo[2,3-d]pyrimidine-2,4-diamine] | 8
CNc1nc(Nc2ccc(-n3cnc(C)c3)c(F)c2)nc2c1CCN2c1ccc(F)cc1 [Example 38, N2-(3-Fluoro-4-(4-methyl-1H-imidazol-1-yl)phenyl)-7-(4-fluorophenyl)-N4-methyl-6,7-dihydro-5H-pyrrolo[2,3-d]pyrimidine-2,4-diamine] | 6
CNc1nc(Nc2cnc(-n3cnc(C)c3)c(OC)c2)nc2c1C(C)(C)CN2c1ccc(F)cc1 [Example 7, 7-(4-Fluorophenyl)-N2-(5-methoxy-6-(4-methyl-1H-imidazol-1-yl)pyridin-3-yl)-N4,5,5-trimethyl-6,7-dihydro-5H-pyrrolo[2,3-d]pyrimidine-2,4-diamine] | 5
CNc1nc(Nc2cnc(-n3cnc(C)c3)c(OC)c2)nc2c1C(C)(C)CN2c1cccc(F)c1F [Example 44, 7-(2,3-Difluorophenyl)-N2-(5-methoxy-6-(4-methyl-1H-imidazol-1-yl)pyridin-3-yl)-N4,5,5-trimethyl-6,7-dihydro-5H-pyrrolo[2,3-d]pyrimidine-2,4-diamine] | 5
CNc1nc(Nc2cnc(-n3cnc(C)c3)c(OC)c2)nc2c1CCN2c1ccc(F)cc1 [Example 33, 7-(4-Fluorophenyl)-N2-(5-methoxy-6-(4-methyl-1H-imidazol-1-yl)pyridin-3-yl)-N4-methyl-6,7-dihydro-5H-pyrrolo[2,3-d]pyrimidine-2,4-diamine] | 6
CNc1nc(Nc2ccc(-n3cnc(C)n3)c(OC)c2)nc2c1C(C)(C)CN2c1ccc(F)cc1 [Example 1, 7-(4-Fluorophenyl)-N2-(3-methoxy-4-(3-methyl-1H-1,2,4-triazol-1-yl)phenyl)-N4,5,5-trimethyl-6,7-dihydro-5H-pyrrolo[2,3-d]pyrimidine-2,4-diamine] | 5
COc1cc(Nc2nc(NCCO)c3c(n2)N(c2ccc(F)cc2)CC3(C)C)cnc1-n1cnc(Cl)c1 [Example 30, 2-((2-((6-(4-Chloro-1H-imidazol-1-yl)-5-methoxypyridin-3-yl)amino)-7-(4-fluorophenyl)-5,5-dimethyl-6,7-dihydro-5H-pyrrolo[2,3-d]pyrimidin-4-yl)amino)ethanol] | 11
CNc1nc(Nc2cnc(-n3cnc(C)c3)c(F)c2)nc2c1C(C)(C)CCN2c1ccc(F)cc1 [Example 36, N2-(5-Fluoro-6-(4-methyl-1H-imidazol-1-yl)pyridin-3-yl)-8-(4-fluorophenyl)-N4,5,5-trimethyl-5,6,7,8-tetrahydropyrido[2,3-d]pyrimidine-2,4-diamine] | 14
